Here are results for 37 compounds from US10183918B2, “Oxa-azaspiro compounds having activity against pain” (LABORATORIOS DEL DR. ESTEVE S.A., priority 2015, dated 2019).

This experiment has as its target T1, human σ1 receptor (Homo sapiens, UniProt Q99720).
T1 construct: expressed in transfected cells; host or cells: HEK-293 (membranes)
Kind of experiment: Human σ1 receptor radioligand assay. It is filed as binding. To be noted: transfected HEK-293 membranes, 5 nM [3H](+)-pentazocine as radioligand. As for the experimental part:
Human σ1 Receptor Radioligand Assay
To investigate binding properties of test compounds to human σ1 receptor, transfected HEK-293 membranes and [^3H](+)-pentazocine (Perkin Elmer, NET-1056), as the radioligand, were used. The assay was carried out with 7 μg of membrane suspension, 5 nM of [^3H](+)-pentazocine in either absence or presence of either buffer or 10 μM Haloperidol for total and non-specific binding, respectively. Binding buffer contained Tris-HCl 50 mM at pH 8. Plates were incubated at 37° C. for 120 minutes. After the incubation period, the reaction mix was then transferred to Multiscreen HTS, FC plates (Millipore), filtered and plates were washed 3 times with ice-cold 10 mM Tris-HCL (pH7.4). Filters were dried and counted at approximately 40% efficiency in a MicroBeta scintillation counter (Perkin-Elmer) using EcoScint liquid scintillation cocktail

T1 sequence (Q99720 whole entry): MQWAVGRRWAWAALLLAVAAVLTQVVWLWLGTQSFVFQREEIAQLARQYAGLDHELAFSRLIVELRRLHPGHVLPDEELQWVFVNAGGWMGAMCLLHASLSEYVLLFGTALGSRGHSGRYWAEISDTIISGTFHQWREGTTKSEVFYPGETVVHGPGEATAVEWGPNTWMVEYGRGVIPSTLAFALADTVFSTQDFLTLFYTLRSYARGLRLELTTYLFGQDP

On to `CCN1C[C@]2(CC[C@H](N(C)Cc3ccccc3)CC2)OC(C)(C)C1=O` [Example 43, (6s,9s)-9-(benzyl(methyl)amino)-4-ethyl-2,2-dimethyl-1-oxa-4-azaspiro[5.5]undecan-3-one], for which the Ki is below 100 nM.

For the compound `CCN1CCO[C@]2(CC[C@@H](N(C)CCC(C)C)CC2)C1` [Example 63, (6s,9s)-4-ethyl-N-isopentyl-N-methyl-1-oxa-4-azaspiro[5.5]undecan-9-amine], the Ki is below 500 nM.

Compound `CCN1C[C@]2(CC[C@@H](N(C)CCc3ccccc3)CC2)OC(C)(C)C1=O` [Example 56, (6r,9r)-4-ethyl-2,2-dimethyl-9-(methyl(phenethyl)amino)-1-oxa-4-azaspiro[5.5]undecan-3-one] displayed a Ki below 100 nM.

As for `CCN1CC(C)(C)O[C@]2(CC[C@@H](N(C)CCC(C)C)CC2)C1` [Example 64, (6s,9s)-4-ethyl-N-isopentyl-N,2,2-trimethyl-1-oxa-4-azaspiro[5.5]undecan-9-amine], the Ki is below 100 nM.

Take `CCN1C[C@]2(CC[C@@H](N(C)Cc3ccccc3)CC2)OCC1=O` [Example 42, (6r,9r)-9-(benzyl(methyl)amino)-4-ethyl-1-oxa-4-azaspiro[5.5]undecan-3-one]: the Ki is below 100 nM.

In the case of `CC(C)CN(C)[C@H]1CC[C@@]2(CC1)CN(C(=O)c1ccccc1)CC1(CC1)O2` [Example 60, ((5s,8s)-8-[isobutyl(methyl)amino]-4-oxa-12-azadispiro[2.1.5.3]tridecan-12-yl)(phenyl)methanone], the inhibition constant (Ki) was below 500 nM.

As to `CN(Cc1ccccc1)[C@H]1CC[C@@]2(CC1)CN(c1ccccc1)CC1(CC1)O2` [Example 19, (5s,8s)-N-benzyl-N-methyl-12-phenyl-4-oxa-12-azadispiro[2.1.5.3]tridecan-8-amine], the Ki was below 100 nM.

With `CCN1CC2(CC2)O[C@]2(CC[C@H](N(C)Cc3ccccc3)CC2)C1` [Example 18, (5r,8r)-N-benzyl-12-ethyl-N-methyl-4-oxa-12-azadispiro[2.1.5.3]tridecan-8-amine], the Ki is below 500 nM.

With `CC(C)CN(C)[C@H]1CC[C@@]2(CC1)CN(Cc1ccccc1)CC1(CC1)O2` [Example 68, (5s,8s)-12-benzyl-N-isobutyl-N-methyl-4-oxa-12-azadispiro[2.1.5.3]tridecan-8-amine], the inhibition constant Ki is below 100 nM.

As for `CC(C)CCN(C)[C@H]1CC[C@@]2(CC1)CN(c1ccccc1)CC1(CC1)O2` [Example 31, (5s,8s)-N-methyl-N-(3-methylbutyl)-12-phenyl-4-oxa-12-azadispiro[2.1.5.3]tridecan-8-amine], the inhibition constant Ki was below 100 nM.

As to `CN(CCc1ccccc1)[C@H]1CC[C@]2(CC1)CN(c1ccccc1)CC1(CC1)O2` [Example 34, (5r,8r)-N-methyl-12-phenyl-N-(2-phenylethyl)-4-oxa-12-azadispiro[2.1.5.3]tridecan-8-amine], the inhibition constant Ki is below 100 nM.

In turn, `CN(CCc1ccccc1)[C@H]1CC[C@@]2(CC1)CN(Cc1ccccc1)CC1(CC1)O2` [Example 67, (5s,8s)-12-benzyl-N-methyl-N-(2-phenylethyl)-4-oxa-12-azadispiro[2.1.5.3]tridecan-8-amine] returned an inhibition constant Ki below 100 nM.

Regarding `CCN1C[C@]2(CC[C@H](N(C)CCc3ccccc3)CC2)OC2(CC2)C1=O` [Example 3, (5s,8s)-12-ethyl-8[methyl(2-phenylethyl)amino]-4-oxa-12-azadispiro[2.1.5.3]tridecan-13-one], the Ki was below 100 nM.

`CN[C@H]1CC[C@]2(CC1)CN(c1ccccc1)CC1(CC1)O2` [Example 26, (5r,8r)-N-rnethyl-12-phenyl-4-oxa-12-azadispiro[2.1.5.3]tridecan-8-amine acetate] had an inhibition constant Ki of at least 500 nM.

`O=C1N(c2ccccc2)C[C@]2(CC[C@H](NCCc3ccccc3)CC2)OC12CC2` [Example 11, (5s,8s)-12-phenyl-8-[(2-phenylethyl)amino]-4-oxa-12-azadispiro[2.1.5.3]tridecan-13-one] displayed a Ki below 500 nM.

In turn, `CN(Cc1ccccc1)[C@H]1CC[C@@]2(CC1)CN(c1ccccc1)C(=O)C1(CC1)O2` [Example 8, (5s,8s)-8-[benzyl(methyl)amino]-12-phenyl-4-oxa-12-azadispiro[2.1.5.3]tridecan-13-one] registered a Ki below 100 nM.

As to `CCN1C[C@]2(CC[C@H](N(C)CCC(C)C)CC2)OC2(CC2)C1=O` [Example 28, (5s,8s)-12-ethyl-8-[rnethyl(3-methylbutyl)amino]-4-oxa-12-azadispiro[2.1.5.3]tridecan-13-one], the inhibition constant Ki was below 500 nM.

`CCN1CCO[C@]2(CC[C@@H](N(C)CCc3ccccc3)CC2)C1` [Example 61, (6s,9s)-4-ethyl-N-methyl-N-phenethyl-1-oxa-4-azaspiro[5.5]undecan-9-amine] displayed an inhibitory constant (Ki) below 100 nM.

For `CCN1C[C@]2(CC[C@H](N(C)Cc3ccccc3)CC2)OC2(CC2)C1=O` [Example 5, (5s,8s)-8-[benzyl(methyl)amino]-12-ethyl-4-oxa-12-azadispiro[2.1.5.3]tridecan-13-one], the Ki is below 100 nM.

As for `CN(Cc1ccccc1)[C@H]1CC[C@@]2(CC1)CN(C(=O)c1ccccc1)CC1(CC1)O2` [Example 45, ((5s,8s)-8-[Benzyl(methyl)amino]-4-oxa-12-azadispiro[2.1.5.3]tridecan-12-yl)(phenyl)methanone], the Ki is below 100 nM.

In the case of `CCN1C[C@]2(CC[C@@H](NCc3ccccc3)CC2)OCC1=O` [Example 37, (6r,9r)-9-(benzylamino)-4-ethyl-1-oxa-4-azaspiro[5.5]undecan-3-one], the Ki was at least 500 nM.

`CN[C@H]1CC[C@@]2(CC1)CN(c1ccccc1)CC1(CC1)O2` [Example 25, (5s,8s)-N-methyl-12-phenyl-4-oxa-12-azadispiro[2.1.5.3]tridecan-8-amine acetate] yielded an inhibition constant (Ki) of at least 500 nM.

Consider `O=C1N(c2ccccc2)C[C@]2(CC[C@@H](NCCc3ccccc3)CC2)OC12CC2` [Example 13], for which the Ki was at least 500 nM.

`CCN1C[C@]2(CC[C@H](N(C)CC(C)C)CC2)OCC1=O` [Example 38, (6s,9s)-4-ethyl-9-(isobutyl(methyl)amino)-1-oxa-4-azaspiro[5.5]undecan-3-one] had an inhibition constant (Ki) below 500 nM.

The compound `CCN1CC(C)(C)O[C@]2(CC[C@@H](N(C)CC(C)C)CC2)C1` [Example 65, (6s,9s)-4-ethyl-N-isobutyl-N,2,2-trimethyl-1-oxa-4-azaspiro[5.5]undecan-9-amine] registered an inhibitory constant (Ki) below 100 nM.

As for `CCN1C[C@]2(CC[C@H](N(C)CC(C)C)CC2)OC2(CC2)C1=O` [Example 33, (5s,8s)-12-ethyl-8-[methyl(2-methylpropyl)amino]-4-oxa-12-azadispiro[2.1.5.3]tridecan-13-one], the inhibition constant Ki was below 500 nM.

Compound `CC(C)CCN(C)[C@H]1CC[C@]2(CC1)CN(c1ccccc1)CC1(CC1)O2` [Example 32, (5r,8r)-N-rnethyl-N-(3-methylbutyl)-12-phenyl-4-oxa-12-azadispiro[2.1.5.3]tridecan-8-amine] registered an inhibitory constant (Ki) below 100 nM.

In turn, `CC(C)CCN(C)[C@H]1CC[C@@]2(CC1)CN(c1ccccc1)C(=O)C1(CC1)O2` [Example 29, (5s,8s)-8-[methyl(3-methylbutyl)amino]-12-phenyl-4-oxa-12-azadispiro[2.1.5.3]tridecan-13-one] yielded a Ki below 500 nM.

`O=C1N(c2ccccc2)C[C@]2(CC[C@H](NCc3ccccc3)CC2)OC12CC2` [Example 10, (5s,8s)-8-(benzylamino)-12-phenyl-4-oxa-12-azadispiro[2.1.5.3]tridecan-13-one] showed a Ki of at least 500 nM.

As to `CN[C@H]1CC[C@@]2(CC1)CN(C(=O)c1ccccc1)CC1(CC1)O2` [Example 50, ((5s,8s)-8-(methylamino)-4-oxa-12-azadispiro[2.1.5.3]tridecan-12-yl)(phenyl)methanone acetate], the inhibitory constant (Ki) was at least 500 nM.

For `CCN1C[C@]2(CC[C@H](NCCc3ccccc3)CC2)OC2(CC2)C1=O` [Example 6, (5s,8s)-12-ethyl-8-[(2-phenylethyl)amino]-4-oxa-12-azadispiro[2.1.5.3]tridecan-13-one], the inhibitory constant (Ki) was below 500 nM.

As to `CCN1C[C@]2(CC[C@@H](NCCc3ccccc3)CC2)OC2(CC2)C1=O` [Example 7, (5r,8r)-12-ethyl-8-[(2-phenylethyl)amino]-4-oxa-12-azadispiro[2.1.5.3]tridecan-13-one], the Ki was below 100 nM.

In the case of `CCN1C[C@]2(CC[C@@H](N(C)CCC(C)C)CC2)OC2(CC2)C1=O` [Example 27, (5r,8r)-12-ethyl-8-[methyl(3-methylbutyl)amino]-4-oxa-12-azadispiro[2.1.5.3]tridecan-13-one], the Ki was below 500 nM.

In turn, `CCN1C[C@]2(CC[C@H](N(C)CCC(C)C)CC2)OCC1=O` [Example 52, (6s,9s)-4-ethyl-9-(isopentyl(methyl)amino)-1-oxa-4-azaspiro[5.5]undecan-3-one] gave a Ki below 500 nM.

`CCN1C[C@]2(CC[C@@H](NCc3ccccc3)CC2)OC2(CC2)C1=O` [Example 2, (5r,8r)-8-(benzylamino)-12-ethyl-4-oxa-12-azadispiro[2.1.5.3]tridecan-13-one] showed an inhibitory constant (Ki) below 500 nM.

On to `CCN1C[C@]2(CC[C@H](NCc3ccccc3)CC2)OCC1=O` [Example 36, (6s,9s)-9-(benzylamino)-4-ethyl-1-oxa-4-azaspiro[5.5]undecan-3-one], for which the Ki was at least 500 nM.

Take `CCN1C[C@]2(CC[C@H](N(C)CC(C)C)CC2)OC(C)(C)C1=O` [Example 54, (6s,9s)-4-ethyl-9-(isobutyl(methyl)amino)-2,2-dimethyl-1-oxa-4-azaspiro[5.5]undecan-3-one]: the Ki is below 500 nM.
